From publication PMC3502260, “Plasmodium serine hydroxymethyltransferase as a potential anti-malarial target: inhibition studies using improved methods for enzyme production and assay” (Malaria Journal, 2012)

Legend:
PfSHMT [1] = target: T1, PfSHMT (Plasmodium falciparum, UniProt Q8I566); experiment: SHMT-MTHFD coupled assay, initial rates; type: biochemical; conditions: read-out: % inhibition at 0.1 mM
T1 construct: gene SHMT; recombinant, expressed in E. coli BL21(DE3) as in an earlier report, purified on Ni-Sepharose; dimer
T1 sequence (Q8I566 1-442): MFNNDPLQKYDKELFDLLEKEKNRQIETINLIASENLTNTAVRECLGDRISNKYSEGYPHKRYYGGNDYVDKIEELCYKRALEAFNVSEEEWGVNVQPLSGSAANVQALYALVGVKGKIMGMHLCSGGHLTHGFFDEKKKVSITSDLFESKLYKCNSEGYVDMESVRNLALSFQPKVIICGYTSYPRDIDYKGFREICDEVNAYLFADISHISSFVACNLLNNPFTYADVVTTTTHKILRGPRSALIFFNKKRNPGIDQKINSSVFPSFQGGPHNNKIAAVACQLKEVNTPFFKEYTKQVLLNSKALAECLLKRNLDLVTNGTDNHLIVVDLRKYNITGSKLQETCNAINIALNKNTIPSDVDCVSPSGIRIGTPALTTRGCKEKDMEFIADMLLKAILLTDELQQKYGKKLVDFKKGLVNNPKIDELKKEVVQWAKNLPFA

PvSHMT [2] = target: T2, PvSHMT (Plasmodium vivax, UniProt A5K8L9); experiment: PLP fluorescence quenching; type: binding; conditions: 10 mM ligand, ~23 μM enzyme, 25 °C, 50 mM HEPES pH 7
T2 construct: gene PVX_100730; recombinant, expressed in E. coli BL21(DE3) as in an earlier report; dimer
T2 sequence (A5K8L9 1-442): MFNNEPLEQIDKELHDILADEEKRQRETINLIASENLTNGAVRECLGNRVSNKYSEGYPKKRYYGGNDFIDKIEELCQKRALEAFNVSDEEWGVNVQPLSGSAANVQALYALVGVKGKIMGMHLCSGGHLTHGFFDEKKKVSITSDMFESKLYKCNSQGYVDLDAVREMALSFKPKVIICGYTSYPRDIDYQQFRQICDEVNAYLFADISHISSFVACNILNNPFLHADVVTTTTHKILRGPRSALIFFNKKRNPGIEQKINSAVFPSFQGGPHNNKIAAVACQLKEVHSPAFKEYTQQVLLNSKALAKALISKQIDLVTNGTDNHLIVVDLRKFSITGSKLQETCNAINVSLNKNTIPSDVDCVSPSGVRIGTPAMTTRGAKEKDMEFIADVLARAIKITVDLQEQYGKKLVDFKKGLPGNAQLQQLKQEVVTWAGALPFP

PfSHMT [3] = target: T1, PfSHMT; experiment: PLP fluorescence quenching; type: binding; conditions: 10 mM ligand, ~23 μM enzyme, 25 °C, 50 mM HEPES pH 7
PvSHMT [4] = target: T2, PvSHMT; experiment: SHMT-MTHFD coupled assay, initial rates; type: biochemical; conditions: read-out: % inhibition at 0.25 mM
PvSHMT [5] = target: T2, PvSHMT; experiment: time-dependent inactivation, SHMT-MTHFD coupled assay; type: biochemical; conditions: covalent; time-dependent inactivation by reaction with PLP; preincubation 5-30 min; 25 °C, 50 mM HEPES pH 7
PfSHMT [6] = target: T1, PfSHMT; experiment: as above; type: biochemical; conditions: covalent; time-dependent inactivation by reaction with PLP; preincubation 5-30 min; 25 °C, 50 mM HEPES pH 7

Compound	PLP fluorescence quenching (PvSHMT [2])	PLP fluorescence quenching (PfSHMT [3])	further results
CCOc1cc(Cc2cnc(N)nc2N)ccc1OCCCc1ccccc1 [CT-55-59-42]			inhibition at 100 µM (PfSHMT [1]): 40%
CCCCOc1cc(Cc2cnc(N)nc2N)ccc1OCc1cc(OC)c(OC)c(OC)c1 [CT-57-59-38]			inhibition at 100 µM (PfSHMT [1]): 40%
N[C@H](CO)C(=O)O [D-serine]	the fluorescence signal of Pf- and PvSHMT was quenched	Upon addition of amino acids (L-, D-serine, L-alanine, and glycine), the fluorescence signal of Pf-	
C[C@H](N)C(=O)O [L-alanine]	the fluorescence signal of Pf- and PvSHMT was quenched	Upon addition of amino acids (L-, D-serine, L-alanine, and glycine), the fluorescence signal of Pf-	
N[C@@H](CO)C(=O)O [L-serine]		Upon addition of amino acids (L-, D-serine, L-alanine, and glycine), the fluorescence signal of Pf-	
CCc1nc(N)nc(N)c1OCCCOc1ccnc2ccccc12 [TV-P-0-113]			inhibition at 250 µM (PvSHMT [4]): 40%
NCC(=O)O [glycine]	the fluorescence signal of Pf- and PvSHMT was quenched	for PfSHMT the binding of glycine caused the largest decrease in fluorescence intensity	
NNC(N)=S [thiosemicarbazide]			KI (inactivation) (PvSHMT [5]): 210 ± 80 µM; KI (inactivation) (PfSHMT [6]): 360 ± 70 µM
